Patent publication US20080132454A1, “Antihypertensive Peptides” (priority 2004, published 2008)
Residues, ends and D or L forms follow the SMILES beside them. No end group written: not given here.

Tests used:
[1] = Bioavailability: peptide amount in plasma after oral administration to mice; assay type: in vivo; details: mouse, 500 ug, Balb/C mice, 500 μg each orally, two hours after administration, HPLC-MS
Description: Peptides SEQ ID NO: 1, SEQ ID NO: 2 and SEQ ID NO: 3 (purity of >95% in weight, 500 μg each) were orally administered to mice (Balb/C, 3 months of age). After 2 hours, mice were sacrificed and a blood sample collected. After centrifugation of the blood sample (5 min, 3000 g) plasma was collected, dried and resuspended in ethyl acetate. The samples were then analyzed by HPLC-MS, and the amount of the peptides of this invention present in the plasma samples calculated using standard curves. Two hours after their oral administration, all three peptides were found in the plasma samples in the following amounts: SEQ ID NO: 1: 7.5 μg/ml, SEQ ID NO: 2: 1.2 μg/ml, and SEQ ID NO: 3: 0.9 μg/ml.

[2] = target: T1, angiotensin converting enzyme (ACE) (Oryctolagus cuniculus, UniProt P12822); assay: ACE assay with purified ACE enzyme (Inhibition of Angiotensin Converting Enzyme); assay type: biochemical; details: purified ACE enzyme (Sigma); for ACE inhibiting activity (in words): judged from IC50 values; for IC50: synthetic peptides, purity >95%
T1 construct: purchased Sigma
T1 sequence (P12822 34-1310): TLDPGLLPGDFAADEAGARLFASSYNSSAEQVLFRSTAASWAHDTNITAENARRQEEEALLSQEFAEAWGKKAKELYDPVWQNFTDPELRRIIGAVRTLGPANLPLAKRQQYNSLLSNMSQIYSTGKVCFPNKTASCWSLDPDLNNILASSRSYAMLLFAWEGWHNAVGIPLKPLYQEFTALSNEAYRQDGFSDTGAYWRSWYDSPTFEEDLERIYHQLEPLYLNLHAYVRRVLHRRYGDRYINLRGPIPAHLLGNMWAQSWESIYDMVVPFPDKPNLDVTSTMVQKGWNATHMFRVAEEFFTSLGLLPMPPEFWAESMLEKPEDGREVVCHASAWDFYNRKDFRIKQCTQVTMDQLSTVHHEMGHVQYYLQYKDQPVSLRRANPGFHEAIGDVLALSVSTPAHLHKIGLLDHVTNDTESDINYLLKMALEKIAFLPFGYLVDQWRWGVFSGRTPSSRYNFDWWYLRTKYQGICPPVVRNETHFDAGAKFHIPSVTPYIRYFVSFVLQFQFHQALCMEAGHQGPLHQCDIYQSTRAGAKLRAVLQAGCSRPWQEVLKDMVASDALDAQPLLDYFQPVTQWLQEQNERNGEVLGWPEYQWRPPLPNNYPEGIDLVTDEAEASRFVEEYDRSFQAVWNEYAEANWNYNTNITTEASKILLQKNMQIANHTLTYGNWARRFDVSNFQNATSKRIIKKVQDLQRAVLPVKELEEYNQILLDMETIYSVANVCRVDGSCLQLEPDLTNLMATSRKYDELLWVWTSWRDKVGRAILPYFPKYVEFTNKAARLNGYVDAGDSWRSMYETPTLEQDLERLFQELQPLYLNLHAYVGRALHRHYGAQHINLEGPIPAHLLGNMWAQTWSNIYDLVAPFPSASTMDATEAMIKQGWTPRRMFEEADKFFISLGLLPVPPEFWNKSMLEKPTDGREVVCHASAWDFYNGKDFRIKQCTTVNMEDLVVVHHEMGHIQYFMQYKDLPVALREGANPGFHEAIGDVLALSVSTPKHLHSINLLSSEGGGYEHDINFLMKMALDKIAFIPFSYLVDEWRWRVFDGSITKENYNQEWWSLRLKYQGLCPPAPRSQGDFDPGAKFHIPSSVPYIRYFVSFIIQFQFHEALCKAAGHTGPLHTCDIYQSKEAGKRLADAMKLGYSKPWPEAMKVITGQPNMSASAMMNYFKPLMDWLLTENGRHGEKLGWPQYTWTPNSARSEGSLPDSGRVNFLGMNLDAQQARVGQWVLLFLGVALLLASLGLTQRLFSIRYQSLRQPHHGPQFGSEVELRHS
Description: In order to determine IC50 values for the peptides included in this invention, pure peptides (purity of >95% in weight) were prepared by custom solid-phase synthesis on a 10 μmol scale and subsequently purified by HPLC (synthesis and purification performed by Eurosequence, the Netherlands). Purified ACE enzyme (Sigma) was used for the ACE assay (Wu et al. 2002 J. Chromatography 950, 125-130). […] Finally, the peptides which are fragments of the amino acid sequences shown in SEQ ID NO: 1, SEQ ID NO: 2 and SEQ ID NO: 3, respectively SEQ ID NO: 7, SEQ ID NO: 8 and SEQ ID NO: 9 were tested for their ACE inhibiting activity.

Molecule	level at 2 h [1]	ACE inhibiting activity (in words) [2]	IC50 [2]
CC(C)C[C@H](NC(=O)[C@@H](N)CO)C(=O)N1CCC[C@H]1C(=O)N[C@@H](CCC(=O)O)C(=O)O [SEQ ID NO: 2] (H-SLPE-OH; N-terminus and C-terminus assumed)	1200 ng/mL	strong inhibitors of ACE	329 µM
NCCCC[C@H](NC(=O)[C@@H]1CCCN1C(=O)[C@H](CCC(=O)O)NC(=O)[C@@H](N)CO)C(=O)O [SEQ ID NO: 3] (H-SEPK-OH; N-terminus and C-terminus assumed)	900 ng/mL	strong inhibitors of ACE	354 µM
CC(C)C[C@H](N)C(=O)N1CCC[C@H]1C(=O)N[C@@H](CCC(=O)O)C(=O)O [SEQ ID NO: 8] (H-Leu-Pro-Glu-OH; N-terminus and C-terminus assumed)		good ACE inhibitors	337 µM
NCCCC[C@H](NC(=O)[C@@H]1CCCN1C(=O)[C@@H](N)CCC(=O)O)C(=O)O [SEQ ID NO: 9] (H-Glu-Pro-Lys-OH; N-terminus and C-terminus assumed)		good ACE inhibitors	364 µM
FYGPIPNS [SEQ ID NO: 4]		good ACE inhibitors	435 µM
GPIPN [SEQ ID NO: 7]		good ACE inhibitors	287 µM
LSEPKV [SEQ ID NO: 6]		good ACE inhibitors	397 µM
NSLPEN [SEQ ID NO: 5]		good ACE inhibitors	369 µM
YGPIPN [SEQ ID NO: 1]	7500 ng/mL	strong inhibitors of ACE	317 µM
